Molecular target: T1, TrkC (Homo sapiens, UniProt Q16288)
T1 construct: host or cells: U2OS (human osteosarcoma), co-expressing p75
Experiment: TrkC PathHunter cell-based assay (U2OS-TrkC/p75)
Description: The human osteosarcoma cell lines U2OS-TrkA/p75, U2OS-TrkB/p75, U2OS-TrkC/p75, U2OS-ratTrkA/p75, U2OS-FGFR1 (fibroblast growth factor receptor 1) as well as the human embryonic kidney cell line HEK293-IGF1R (insulin-like growth factor 1 receptor) from DiscoverX, Birmingham, United Kingdom, were used in the in vitro experiments. Eagle’s minimum essential medium (EMEM) ATCC #30-2003 from LGC Standards AB, Borås, Sweden; Leibovitz’s L15 medium, RPMI1640, fetal bovine serum, horse serum, penicillin/streptomycin, and Hoechst dye purchased from Invitrogen, Gothenburg, Sweden, were also used. Black poly-D-lysine coated 384-well plates (Viewplate) were purchased from PerkinElmer, Upplands Väsby, Sweden, and white 384-well assay plates(3570) were purchased from Corning, Amsterdam, Netherlands. […] Recombinant intracellular domain (ICD) of TrkA (08-186) and single site biotinylated activated (08-486-20N) or non-activated TrkA (08-486-23N) were obtained from Carna Biosciences, Odense, Denmark. […]
U2OS cells were maintained subconfluent in EMEM supplemented with 10% FBS and penicillin/streptomycin/hygromycin and G418. […] The functional (complemented) β-gal will hydrolyze a substrate to generate a luminescence signal. The generated luminescence was read using an EnVision plate reader from PerkinElmer, Upplands Väsby, Sweden, or an ID5 plate reader from Molecular Devices, Berkshire, RG41 5TS UK. […]

T1 sequence (Q16288 32-839): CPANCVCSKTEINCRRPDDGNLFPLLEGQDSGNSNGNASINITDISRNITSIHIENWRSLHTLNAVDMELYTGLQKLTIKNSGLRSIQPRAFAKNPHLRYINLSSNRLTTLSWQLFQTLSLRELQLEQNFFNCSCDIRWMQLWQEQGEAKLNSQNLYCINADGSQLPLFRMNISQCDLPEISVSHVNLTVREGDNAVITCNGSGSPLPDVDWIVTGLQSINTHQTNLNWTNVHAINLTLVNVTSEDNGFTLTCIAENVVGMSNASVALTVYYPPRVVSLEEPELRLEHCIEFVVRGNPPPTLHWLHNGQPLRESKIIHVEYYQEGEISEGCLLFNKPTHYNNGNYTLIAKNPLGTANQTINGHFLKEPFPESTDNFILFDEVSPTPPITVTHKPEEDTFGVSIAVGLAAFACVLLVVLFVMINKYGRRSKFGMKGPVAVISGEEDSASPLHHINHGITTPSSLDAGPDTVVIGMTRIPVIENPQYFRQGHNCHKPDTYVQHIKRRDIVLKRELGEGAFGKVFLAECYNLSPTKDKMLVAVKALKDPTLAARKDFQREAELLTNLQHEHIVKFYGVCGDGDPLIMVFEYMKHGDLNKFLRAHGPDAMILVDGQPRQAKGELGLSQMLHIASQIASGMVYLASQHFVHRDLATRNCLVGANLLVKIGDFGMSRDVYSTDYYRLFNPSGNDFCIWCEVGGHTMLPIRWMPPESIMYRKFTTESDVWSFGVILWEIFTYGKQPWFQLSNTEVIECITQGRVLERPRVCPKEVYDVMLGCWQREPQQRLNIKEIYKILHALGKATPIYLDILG

**Q.** For Cc1cc(-n2c(=O)[nH]c(=O)n(C)c2=O)ccc1Oc1ccc(S(=O)(=O)C(F)(F)F)cc1 [ACD855, Toltrazuril-sulfone], which EC50 is on record?
**A.** 800 nM

**Q.** What about the “TrkC Effect (efficacy)” value of the same molecule?
**A.** 56%
